Measured values: patent US4180672A, “2-Organothio-2-cyclopentenones, organothio-cyclopentanes derived therefrom” (Teijin Limited, priority 1976, dated 1979)
Where two headings read alike, the source gives them in different places.

How the values were obtained:
[1] = system: formation of ulcer in rats induced by indomethacin; assay: inhibiting action on formation of ulcer in rats induced by indomethacin (peroral); type: in vivo, rats (Sprague Dawley); conditions: for Ulcer formation (ulcer coefficient) Average value ± S.E.M.: 7 rats
Method: By the method of Y. H. Lee et al. [Arch. Int. Pharmacodyn. Ther., 192, 370 (1971)], the inhibiting action of dl-11-deoxy-15-methyl-7-thia-PGE1 methyl ester (a compound of formula II) on the formation of ulcer in rats induced by indomethacin, a typical non-steroid anti-inflammatory agent, was evaluated.
Male rats (Sprague Dawley species; body weight 300 g) were used in the experiment. These rats had been caused to fast for 24 hours in separate cages before the initiation of the experiment. Indomethacin was orally administered to these rats, and 6 hours later, they were killed. Formation of ulcer in the fundus part was examined by measuring the area of the ulcer-forming part under microscope. The dl-11-deoxy-15-methyl-7-thia-PGE1 methyl ester was orally administered at the end of 30 minutes and 3 hours, respectively, after the administration of indomethacin. The ulcer formation inhibiting rate of the dl-11-deoxy-15-methyl-7-thia-PGE1 methyl ester against a predetermined dose of indomethacin was determined.
The indomethacin was administered as a 0.5 ml aqueous suspension (containing two drops of a Tween-type nonionic surfactant per 14 ml of water). The dl-11-deoxy-15-methyl-7-thia-PGE1 methyl ester was given in the form of a solution in a phosphate buffer containing 0.9% of sodium chloride.
In the same way as in Referential Example 1, the compounds shown in Table 2 were examined for their inhibiting action on ulcer formation.

[2] = acute toxicity (iv) in mice; conditions: mouse, in vivo

CCCCCC(C)(O)CS[C@H]1CCC(O)[C@@H]1SCCCCCC(=O)OC (some centres unmarked) [No. 182, methyl 7,13-dithia-9,15-dihydroxy-15-methylprostanoate]
Inhibiting rate (ulcer formation) ([1]; dose 0.4 mg/kg, po): 25%
Inhibiting rate (ulcer formation) ([1]; dose 2.0 mg/kg, po): 80%

CCCCC[C@H](O)/C=C/[C@@H]1[C@@H](C/C=C\CCCC(=O)O)[C@@H](O)C[C@H]1O [PGF2α, reference compound]
LD50 ([2]; iv, female, iv, mice, read-out: acute toxicity LD50): 56 mg/kg
LD50 ([2]; male, iv, mice, read-out: acute toxicity LD50): 60 mg/kg

COC(=O)CCCCCSC1CCC(O)C1SCCCc1ccccc1 (centres unmarked) [No. 190, methyl 7,13-dithia-11-hydroxy-16-phenyl-17,18,19,20-tetranor-prostanoate]
Inhibiting rate (ulcer formation) ([1]; dose 0.4 mg/kg, po): 46%
Inhibiting rate (ulcer formation) ([1]; dose 1.0 mg/kg, po): 57%

CCCCC[C@H](O)/C=C/[C@@H]1CCC(=O)[C@H]1SCCCCCC(=O)OC [No. 89, 11-Deoxy-7-thia-8,12-diepiprostaglandin E1 methyl ester]
Inhibiting rate (ulcer formation) ([1]; dose 0.4 mg/kg, po): 57%
Inhibiting rate (ulcer formation) ([1]; dose 1.0 mg/kg, po): 65%
LD50 ([2]; iv): 20 mg/kg

CCCCCC(C)(O)/C=C/C1CCC(=O)C1SCCCCCC(=O)OC (racemic) [No. 101, dl-11-deoxy-15-methyl-7-thia-PGE1 methyl ester]
ED50 ([1]; Rattus norvegicus, po, peroral, indomethacin 20 mg/kg peroral, rats, read-out: ED50 (inhibition of ulcer formation induced by indomethacin)): 0.3 mg/kg
Inhibiting rate (ulcer formation) ([1]; dose 0.1 mg/kg, po): 16%
Ulcer formation (ulcer coefficient) Average value ± S.E.M. ([1]; dose 0.1 mg/kg, po, indomethacin 20 mg/kg peroral): 57.5 ± 14.1
Inhibiting rate (ulcer formation) ([1]; dose 0.4 mg/kg, po): 66%
Ulcer formation (ulcer coefficient) Average value ± S.E.M. ([1]; dose 0.4 mg/kg, po, indomethacin 20 mg/kg peroral, *** p 0.001): 23.3 ± 12.4
Inhibiting rate (ulcer formation) ([1]; dose 1.0 mg/kg, po): 99%
Ulcer formation (ulcer coefficient) Average value ± S.E.M. ([1]; dose 1.0 mg/kg, po, indomethacin 20 mg/kg peroral, *** p 0.001): 0.6 ± 0.05
inhibition of ulcer formation (in words) ([1]; rats, indomethacin-induced, peroral): markedly inhibited ulcer formation

CCCCCC(C)(O)CS[C@H]1C(=O)CC[C@@H]1SCCCCCC(=O)O (some centres unmarked) [No. 154, 7,13-dithia-15-hydroxy-15-methyl-11-oxo-prostanoic acid]
Inhibiting rate (ulcer formation) ([1]; dose 2.0 mg/kg, po): 80%
LD50 ([2]; acute toxicity (iv) in mice, read-out: LD50): 350 mg/kg

CCCCCCCS[C@H]1CCC(O)[C@@H]1SCCCCCC(=O)OC (some centres unmarked) [No. 171, methyl 7,13-dithia-9-hydroxyprostanoate]
Inhibiting rate (ulcer formation) ([1]; dose 0.4 mg/kg, po): 12%
Inhibiting rate (ulcer formation) ([1]; dose 5.0 mg/kg, po): 75%

CCCCCCCS[C@H]1C(O)CC[C@@H]1SCCCCCC(=O)OC (some centres unmarked) [No. 159, methyl 7,13-dithia-11-hydroxyprostanoate]
Inhibiting rate (ulcer formation) ([1]; dose 0.4 mg/kg, po): 15%
Inhibiting rate (ulcer formation) ([1]; dose 2.0 mg/kg, po): 78%
